According to patent publication US6692927B2, “Bax degradation involvement in tumor survival and progression” (University of South Florida, priority 2000, dated 2004):
Where a SMILES comes first, the peptide text is derived from it. [ ]: non-standard residue; d: D form. The star is where a group is joined. Nva = CCC[C@H](N)C(=O)O; Cbz = O=C(OCc1ccccc1)*

What was measured:
MCF-7 cells = assay: Bax level and PARP cleavage in MCF-7 cells; format: cell-based, human; conditions: LLnV
Description: Levels of BDA predict levels of Bax and consequently influence sensitivity of human cancer cells to proteasome inhibitor-induced apoptosis. Basal level of Bax protein in SV40-transformed WI-38 cells (VA13) was several-fold higher than that of human breast cancer MCF-7 cells (FIG. 1E, top panel, lanes 1 vs. 3). This is due to a much lower level of BDA in VA13 cells than in MCF-7 cells (FIG. 1E, lower panel, lanes 1 vs. 3). This conclusion is further confirmed by using increased amounts of protein extracts of each cell line in the cell-free BDA assay (FIG. 4A, top panel). […] In contrast, when MCF-7 cells were treated under the same conditions, Bax levels were not increased; PARP was cleaved only after 24 hours treatment, which is Bax-independent (FIG. 4B, lanes 6-9). Therefore, although highly preliminary, it appears that levels of BDA determine levels of Bax and consequently affect responsiveness of human cancer cells to proteasome inhibition-induced apoptosis.

Bax degradation activity = assay: cell-free Bax (or Bcl-2) degradation assay with extracts of inhibitor-pretreated cells; format: cell-based, human
Protocol: FIGS. 9A-9F show Bax degradation depends on ubiquitination, proteasome and ATP. (FIG. 9A) Jurkat cells (0 h) were treated with either 50 μM LLnV or 10 μM lactacystin, followed by preparation of Bax immunoprecipitates (with clone 6A7), which were immunoblotted with an ubiquitin antibody. Positions of putative ubiquitinated Bax proteins (p47, p55) are indicated at left. The nature of the ˜30 kDa and ˜84 kDa remains unclear. (FIG. 9B) The [^35S]-labeled Bax (upper) or Bcl-2 (lower) protein (1 μl) were incubated at 37° C. for 2 h with either buffer Z only (lane 1) or […] protein extract of MCF-7 cells grown exponentially (lane 2) or pretreated for 8 h with […] LLnV (lane 3). (FIG. 9C) The [^35S]-labeled Bax protein (1 μl) was incubated with either buffer Z only (lane 1) or 100 μg MCF-7 cell lysate at 37° C. for 4 h, in the presence of an indicated inhibitor (100 mM; lanes 3-8) or an equal volume of DMSO (lane 2) in buffer Z. A weak band of ˜16 kDa (indicated by an arrow) is probably an intermediate product of proteasome-mediated Bax degradation. (FIG. 9D) The proteasome in MCF-7 whole cell lysate (W lys, lane 1) was precipitated by using either ultraspin (ULS) or a proteasome subunit a6 antibody (IP). Both supernatant (lanes 2, 4) and pellet (lanes 3, 5) fractions were examined by Western blot assay using antibody to the proteasome a6 subunit (MW 33 kDa). (FIG. 9E) Bax degradation assay was performed as in FIG. 9B, with addition of buffer Z (lane 1) or 100 μg protein from MCF-7 whole cell lysate (lane 2), ultraspun supernatant (lane 3) or plus the pellet (lane 4), immunodepleted supernatant (lane 5) or plus a purified 20S proteasome ([…]; lane 6), or the purified proteasome alone (2 μg; lane 7). (FIG. 9F) Bax degradation assay was performed as in FIG. 9B, in the absence (lane 3) or presence of 10 mM ATP (lane 2) or 10 mM ATP-y-S (lane 4).
In vitro Bax Degradation Assay: Human Bax-a cDNA subcloned into pcDNA3 was a gift from Dr. Hong-gang Wang. Human full length of bcl-2-a cDNA was cloned from Jurkat T cells and subcloned into pcDNA3.1(−) as described+. Both bax and bcl-2 plasmids were used for coupled in vitro transcription/translation (Promega; Madison, Wis.) in the presence of [^35S]methionine (Amersham Pharmacia Biotech; Piscataway, N.J.). Protein extracts were prepared from either MCF-7 cells or prostate tumor tissues in buffer Y (50 mM Tris-HCl, pH 7.4, 250 mM NaCl, 1% Triton X-100, 0.1% SDS, 1 mM EDTA), and used for Bax (or Bcl-2) degradation assay. […]

[1] = Jurkat T cells pretreated with LLnV (50 µM, 8 hours)

## CCC[C@@H](C=O)NC(=O)[C@H](CC(C)C)NC(=O)[C@H](CC(C)C)NC(=O)OCc1ccccc1 [LLnV] (Cbz-Leu-Leu-[Nva]-aldehyde)
MCF-7 cells; Bax-independent
  time after which PARP was cleaved: 24 h
MCF-7 cells; same conditions as VA-13
  Bax levels: not increased
Bax degradation activity; [1]
  Bax degradation activity in the cell extract: inhibited
  levels of labeled Bcl-2 after in vitro incubation: no effects
Bax degradation activity; MCF-7 cells pretreated for 8 h with 50 mM LLnV (FIG. 9B legend)
  cell-free Bax degradation activity: inhibited
Bax degradation activity; cells pretreated with LLnV
  BDA inhibition, VA-13 compared with MCF-7: a greater inhibition was observed in VA-13 than in MCF-7 cells
